Assay results from patent US20230218563A1, “METHODS FOR TREATING OR PREVENTING CHRONIC KIDNEY DISEASE” (Arthrosi Therapeutics, Inc., priority 2020, published 2023).
“Also recorded” adds a separate entry of the source.

Assays:
[1] = In vitro metabolism in human liver microsomes; type: in vitro ADME
Description: After pre-warming the mixture at 37° C. for 5 minutes, the reaction was initiated by the addition of 1 mM of NADPH and incubated for 60 minutes at 37° C. in a shaking water bath. The reaction was terminated by the addition of 0.5 mL ice-cold acetonitrile. Time 0 incubation was also performed by adding acetonitrile before the addition of microsomes to the incubation mixture as a reference sample for each species. Following vortex and centrifugation at 15,000 g for 3 minutes at room temperature, resulting supernatant was concentrated under nitrogen flow at 33° C., until approximately 0.5 mL of sample remained. The extract was then transferred to a 1.5-mL centrifuge vial for centrifugation at 15,000 g for 3 minutes. Finally, aliquots of the supernatant were transferred to HPLC vials for HPLC-MS analyses.
MS Analysis: Mass spectral analyses were performed on an Agilent single quadruple mass spectrometer equipped with an Agilent 1100 HPLC system. The mass spectrometer was fitted with an electrospray ionization (ESI) source and operated in a negative scan mode between 400 and 500 amu: […]

[2] = test system: serum uric acid (sUA); test: Phase 1 single dose study, pharmacodynamics (serum uric acid) in healthy adult males; type: in vivo, human
Description: The dose groups included Cohort 1 (15 mg or placebo, fasted, oral suspension), Cohort 2 (50 mg or placebo, fasted, suspension), Cohort 3 (100 mg or placebo, fasted, oral suspension), Cohort 4 (150 mg or placebo, fasted, oral suspension), Cohort 6 (50 mg or placebo, fed, oral suspension), and Cohort 7 (50 mg or placebo, fasted, oral capsule). […] An additional 8 subjects received placebo.
Decrease in sUA appeared to reach a plateau at 100 mg or lower.

[3] = 15 mg single oral, fasted, 12 h
[4] = 15 mg single oral, fasted, 30 h
[5] = 15 mg single oral, fasted, 36 h
[6] = 15 mg single oral, fasted, 48 h
[7] = 15 mg single oral, fasted, 54 h
[8] = 15 mg single oral, fasted, 60 h
[9] = 15 mg single oral, fasted, 72 h
[10] = 15 mg single oral, fasted, 96 h
[11] = 15 mg single oral, fasted, 120 h
[12] = 50 mg single oral, fasted, Capsule, 6 h
[13] = 50 mg single oral, fasted, Capsule, 12 h
[14] = 50 mg single oral, fasted, Capsule, 24 h
[15] = 50 mg single oral, fasted, Capsule, 30 h
[16] = 50 mg single oral, fasted, Capsule, 36 h
[17] = 50 mg single oral, fasted, Capsule, 48 h
[18] = 50 mg single oral, fasted, Capsule, 54 h
[19] = 50 mg single oral, fasted, Capsule, 60 h
[20] = 50 mg single oral, fasted, Capsule, 72 h
[21] = 50 mg single oral, fasted, Capsule, 96 h
[22] = 50 mg single oral, fasted, Capsule, 120 h
[23] = 50 mg single oral, fasted, 12 h
[24] = 50 mg single oral, fasted, 24 h
[25] = 50 mg single oral, fasted, 30 h
[26] = 50 mg single oral, fasted, 36 h
[27] = 50 mg single oral, fasted, 48 h
[28] = 50 mg single oral, fasted, 54 h
[29] = 50 mg single oral, fasted, 60 h
[30] = 50 mg single oral, fasted, 72 h
[31] = 50 mg single oral, fasted, 96 h
[32] = 50 mg single oral, fasted, 120 h

Structure (SMILES): [2H]c1c([2H])c([2H])c2c(C(=O)c3cc(Br)c(O)c(Br)c3)c(C(C)O)oc2c1[2H] (racemic) [Compound 1, (3,5-dibromo-4-hydroxyphenyl)(2-(1-hydroxyethyl)benzofuran-3-yl-4,5,6,7-d4)methanone]
- stability in human microsomes ([1]; 60 minutes incubation): stable; also recorded: more stable than benzbromarone
- Parent, % MS response (parent left) ([1]; human liver microsomes 0.5 mg/mL, NADPH, 60 minutes, 37° C.): 82.5%
- Percent change in serum uric acid, mean, time-matched (Day-1) baseline ([2]; 15 mg single oral, fasted, 6 h): 2.7%
- Serum uric acid, mean ([2]; 15 mg single oral, fasted, 6 h): 5.4 mg/dL
- Percent change in serum uric acid, mean, time-matched (Day-1) baseline [2, 3]: 8.7%
- Serum uric acid, mean [2, 3]: 5.1 mg/dL
- Serum uric acid, mean ([2]; 15 mg single oral, fasted, 24 h): 5.1 mg/dL
- Percent change in serum uric acid, mean, time-matched (Day-1) baseline [2, 4]: 0.7%
- Serum uric acid, mean [2, 4]: 5.2 mg/dL
- Percent change in serum uric acid, mean, time-matched (Day-1) baseline [2, 5]: −1.4%
- Serum uric acid, mean [2, 5]: 4.6 mg/dL
- Percent change in serum uric acid, mean, time-matched (Day-1) baseline [2, 6]: −4.4%
- Serum uric acid, mean [2, 6]: 5.2 mg/dL
- Percent change in serum uric acid, mean, time-matched (Day-1) baseline [2, 7]: −1.5%
- Serum uric acid, mean [2, 7]: 5.1 mg/dL
- Percent change in serum uric acid, mean, time-matched (Day-1) baseline [2, 8]: 10.0%
- Serum uric acid, mean [2, 8]: 5.2 mg/dL
- Percent change in serum uric acid, mean, time-matched (Day-1) baseline [2, 9]: 3.6%
- Serum uric acid, mean [2, 9]: 5.6 mg/dL
- Percent change in serum uric acid, mean, time-matched (Day-1) baseline [2, 10]: 7.8%
- Serum uric acid, mean [2, 10]: 5.8 mg/dL
- Percent change in serum uric acid, mean, time-matched (Day-1) baseline [2, 11]: 13.0%
- Serum uric acid, mean [2, 11]: 6.1 mg/dL
- Percent change in serum uric acid, mean, time-matched (Day-1) baseline [2, 12]: −26.9%
- Serum uric acid, mean [2, 12]: 4.0 mg/dL
- Percent change in serum uric acid, mean, time-matched (Day-1) baseline [2, 13]: −37.5%
- Serum uric acid, mean [2, 13]: 3.4 mg/dL
- Percent change in serum uric acid, mean, time-matched (Day-1) baseline [2, 14]: −38.3%
- Serum uric acid, mean [2, 14]: 3.7 mg/dL
- Percent change in serum uric acid, mean, time-matched (Day-1) baseline [2, 15]: −36.9%
- Serum uric acid, mean [2, 15]: 3.4 mg/dL
- Percent change in serum uric acid, mean, time-matched (Day-1) baseline [2, 16]: −34.1%
- Serum uric acid, mean [2, 16]: 3.6 mg/dL
- Percent change in serum uric acid, mean, time-matched (Day-1) baseline [2, 17]: −32.4%
- Serum uric acid, mean [2, 17]: 4.1 mg/dL
- Percent change in serum uric acid, mean, time-matched (Day-1) baseline [2, 18]: −28.1%
- Serum uric acid, mean [2, 18]: 3.9 mg/dL
- Percent change in serum uric acid, mean, time-matched (Day-1) baseline [2, 19]: −21.0%
- Serum uric acid, mean [2, 19]: 4.3 mg/dL
- Percent change in serum uric acid, mean, time-matched (Day-1) baseline [2, 20]: −17.8%
- Serum uric acid, mean [2, 20]: 4.9 mg/dL
- Percent change in serum uric acid, mean, time-matched (Day-1) baseline [2, 21]: −11.2%
- Serum uric acid, mean [2, 21]: 5.3 mg/dL
- Percent change in serum uric acid, mean, time-matched (Day-1) baseline [2, 22]: −12.5%
- Serum uric acid, mean [2, 22]: 5.2 mg/dL
- Percent change in serum uric acid, mean, time-matched (Day-1) baseline ([2]; 50 mg single oral, fasted, 6 h): −23.8%
- Serum uric acid, mean ([2]; 50 mg single oral, fasted, 6 h): 4.6 mg/dL
- Percent change in serum uric acid, mean, time-matched (Day-1) baseline [2, 23]: −33.6%
- Serum uric acid, mean [2, 23]: 3.9 mg/dL
- Percent change in serum uric acid, mean, time-matched (Day-1) baseline [2, 24]: −42.4%
- Serum uric acid, mean [2, 24]: 3.9 mg/dL
- Percent change in serum uric acid, mean, time-matched (Day-1) baseline [2, 25]: −33.5%
- Serum uric acid, mean [2, 25]: 4.1 mg/dL
- Percent change in serum uric acid, mean, time-matched (Day-1) baseline [2, 26]: −33.9%
- Serum uric acid, mean [2, 26]: 3.9 mg/dL
- Percent change in serum uric acid, mean, time-matched (Day-1) baseline [2, 27]: −35.8%
- Serum uric acid, mean [2, 27]: 4.3 mg/dL
- Percent change in serum uric acid, mean, time-matched (Day-1) baseline [2, 28]: −32.1%
- Serum uric acid, mean [2, 28]: 4.2 mg/dL
- Percent change in serum uric acid, mean, time-matched (Day-1) baseline [2, 29]: −24.2%
- Serum uric acid, mean [2, 29]: 4.5 mg/dL
- Percent change in serum uric acid, mean, time-matched (Day-1) baseline [2, 30]: −26.1%
- Serum uric acid, mean [2, 30]: 5.0 mg/dL
- Percent change in serum uric acid, mean, time-matched (Day-1) baseline [2, 31]: −9.6%
- Serum uric acid, mean [2, 31]: 6.0 mg/dL
- Percent change in serum uric acid, mean, time-matched (Day-1) baseline [2, 32]: −4.6%
- Serum uric acid, mean [2, 32]: 6.4 mg/dL
- Percent change in serum uric acid, mean, time-matched (Day-1) baseline ([2]; 50 mg single oral, fed, 6 h): −20.3%
- Serum uric acid, mean ([2]; 50 mg single oral, fed, 6 h): 4.8 mg/dL
